Experimental data taken from patent US20090105217A1, “2-PHENYL-5-AMINO-1,3,4-OXADIAZOLES AND THEIR USE AS NICOTINIC ACETYLCHOLINE RECEPTOR LIGANDS” (priority 2007, published 2009).
Where a name gives a salt, the structure may show the parent alone.

biological target: T1, human α7 nAChR (Homo sapiens, UniProt P36544); assay: α7 nAChR FLIPR (Fluorometric Imaging Plate Reader) Ca2+ assay, agonist EC50; format: cell-based; conditions: GH4C1 cells stably transfected with human α7 nAChR; Fluo-4 Ca2+ fluorescence; Examples 194 to 205 tested as the HCl salt; read-out: pEC50 value (negative logarithm of the agonist EC50) (converted)
T1 construct: host or cells: GH4C1 cells (pituitary tumor, immortalized cell line)
Method in brief: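 GH4C1 cells stably expressing human α7 nAChR, loaded with 2 μM Fluo-4 for 45–60 min at 37 °C in HEPES buffer pH 7.3 with 2 mM CaCl2 and 2.5 mM probenecid. Peak calcium fluorescence (ex 488, em 510–580 nm) after compound addition fitted for agonist EC50, reported as pEC50.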

T1 sequence (P36544 23-502): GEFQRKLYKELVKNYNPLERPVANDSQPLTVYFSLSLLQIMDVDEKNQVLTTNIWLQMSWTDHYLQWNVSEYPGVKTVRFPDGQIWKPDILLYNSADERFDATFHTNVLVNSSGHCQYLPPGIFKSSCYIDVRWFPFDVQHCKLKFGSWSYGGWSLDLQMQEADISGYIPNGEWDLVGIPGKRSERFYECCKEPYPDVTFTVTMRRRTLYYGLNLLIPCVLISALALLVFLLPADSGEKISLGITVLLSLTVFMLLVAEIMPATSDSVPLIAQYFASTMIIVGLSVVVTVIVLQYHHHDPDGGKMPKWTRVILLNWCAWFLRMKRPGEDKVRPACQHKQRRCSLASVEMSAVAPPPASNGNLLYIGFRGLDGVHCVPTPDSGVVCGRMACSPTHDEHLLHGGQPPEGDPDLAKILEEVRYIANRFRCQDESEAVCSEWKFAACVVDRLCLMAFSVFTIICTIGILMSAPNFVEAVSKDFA

Row | Compound | EC50 [nM]
1 | CCc1cc(NC(=O)c2ccccc2F)ccc1-c1nnc(NCCCN2CCN3CCC2CC3)o1 [Example 169, N-[4-(5-{[3-(1,4-diazabicyclo[3.2.2]non-4-yl)propyl]amino}-1,3,4-oxadiazol-2-yl)-3-ethylphenyl]-2-fluorobenzamide] | ≤ 100
2 | O=C(Nc1ccc(-c2nnc(NCCCN3CCN4CCC3CC4)o2)c(Cl)c1)c1ccccc1F [Example 125, N-[3-chloro-4-(5-{[3-(1,4-diazabicyclo[3.2.2]non-4-yl)propyl]amino}-1,3,4-oxadiazol-2-yl)phenyl]-2-fluorobenzamide] | ≤ 100
3 | Cc1cc(C(=O)Nc2ccc(-c3nnc(NCCCN4CCCCC4)o3)cc2)no1 [Example 183, 5-methyl-N-[4-(5-{[3-(1-piperidinyl)propyl]amino}-1,3,4-oxadiazol-2-yl)phenyl]-3-isoxazolecarboxamide] | ≤ 1000
4 | CCN(CC)CCCCNc1nnc(-c2ccc(NC(=O)C3CCCCC3)cc2C(F)(F)F)o1 [Example 68, N-[4-(5-{[4-(diethylamino)butyl]amino}-1,3,4-oxadiazol-2-yl)-3-(trifluoromethyl)phenyl]cyclohexanecarboxamide] | ≤ 1000
5 | COc1cc(NC(=O)C2CCCCC2)ccc1-c1nnc(NCCCCN2CCCCC2)o1 [Example 83, N-[3-(methyloxy)-4-(5-{[4-(1-piperidinyl)butyl]amino}-1,3,4-oxadiazol-2-yl)phenyl]cyclohexanecarboxamide] | ≤ 100
6 | O=C(Nc1ccc(-c2nnc(NCCCN3CCCCC3)o2)c(C(F)(F)F)c1)C1CCCCC1 [Example 61, N-[4-(5-{[3-(1-piperidinyl)propyl]amino}-1,3,4-oxadiazol-2-yl)-3-(trifluoromethyl)phenyl]cyclohexanecarboxamide] | ≤ 1000
7 | O=C(Nc1ccc(-c2nnc(NCCCN3CCCCC3)o2)cc1)c1ccccn1 [Example 17, N-[4-(5-{[3-(1-Piperidinyl)propyl]amino}-1,3,4-oxadiazol-2-yl)phenyl]-2-pyridinecarboxamidehydrochloride] | ≤ 1000
8 | O=C(Nc1ccc(-c2nnc(NCCCN3CCCC3)o2)c(F)c1)C1CCCCC1 [Example 56, N-[3-fluoro-4-(5-{[3-(1-pyrrolidinyl)propyl]amino}-1,3,4-oxadiazol-2-yl)phenyl]cyclohexanecarboxamide] | ≤ 1000
9 | O=C(Nc1ccc(-c2nnc(NCCCCN3CCC(F)CC3)o2)c(F)c1)c1ccccc1F [Example 26, 2-Fluoro-N-[3-fluoro-4-(5-{[4-(4-fluoro-1-piperidinyl)butyl]amino}-1,3,4-oxadiazol-2-yl)phenyl]benzamide] | ≤ 100
10 | CCN(CC)CCCCNc1nnc(-c2ccc(NC(=O)c3ccccc3)cc2Cl)o1 [Example 104, N-[3-chloro-4-(5-{[4-(diethylamino)butyl]amino}-1,3,4-oxadiazol-2-yl)phenyl]benzamide] | ≤ 100
11 | CCN(CC)CCCCNc1nnc(-c2ccc(NC(=O)C3CCCCC3)cc2OC)o1 [Example 82, N-[4-(5-{[4-(diethylamino)butyl]amino}-1,3,4-oxadiazol-2-yl)-3-(methyloxy)phenyl]cyclohexanecarboxamide] | ≤ 1000
12 | COc1cc(NC(=O)C2CCCCC2)ccc1-c1nnc(NCCCCN2CCOCC2)o1 [Example 80, N-[3-(methyloxy)-4-(5-{[4-(4-morpholinyl)butyl]amino}-1,3,4-oxadiazol-2-yl)phenyl]cyclohexanecarboxamide] | ≤ 1000
13 | CCN(CC)CCCCNc1nnc(-c2ccc(NC(=O)c3ccccc3F)cc2OC)o1 [Example 52, N-[4-(5-{[4-(diethylamino)butyl]amino}-1,3,4-oxadiazol-2-yl)-3-(methyloxy)phenyl]-2-fluorobenzamide] | ≤ 100
14 | CCN(CC)CCCNc1nnc(-c2ccc(NC(=O)c3ccccc3)cc2C(F)(F)F)o1 [Example 95, N-[4-(5-{[3-(diethylamino)propyl]amino}-1,3,4-oxadiazol-2-yl)-3-(trifluoromethyl)phenyl]benzamide] | ≤ 1000
